# Values quoted from earlier work as cited in patent US7807682B2, “Pyridyl cyanoguanidine compounds” (Leo Pharma A/S, priority 2001, dated 2010).
# How the values were obtained:
# [1] = tested on: normal human endothelial cells
# human tumour cells = details: nude mice transplanted with human tumour cells, also paclitaxel-resistant tumour cells
compound,measurement,setting,value
N#CNC(=Nc1ccncc1)NCCCCCCOc1ccc(Cl)cc1 [N-(6-(4-chlorophenoxy)hexyl)-N′-cyano-N″-(4-pyridyl)guanidine],antiproliferative activity on normal human endothelial cells,[1],considerably less antiproliferative activity
same,antitumour activity in vivo,human tumour cells,substantial antitumour activity
